# Measurements taken from US20250074911A1, “MACROCYCLIC BTK INHIBITORS” (Crossfire Oncology Holding B.V., priority 2021, published 2025).
# Where “and” joins values, the source holds several entries; their conditions need not be identical. Identical values can stand only once.
# Assays:
# [1] = molecular target: full-length wt-BTK enzyme (Homo sapiens (Human), UniProt Q06187); assay: Biochemical kinase assay wt-BTK (IMAP)
# How it was run: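 Compound and enzyme (final 1.2 nM) were pre-incubated for 1 h at RT, after which the reaction was started with 4 μM ATP plus 50 nM fluorescein-MBP substrate peptide. After 2 h in the dark, the IMAP progressive binding reagent stopped the reaction, and phosphorylation was read by fluorescence polarization.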
# [2] = molecular target: full-length BTK C481S enzyme (Homo sapiens (Human), UniProt Q06187, C481S); assay: Biochemical kinase assay BTK C481S (IMAP)
# full-length BTK C481S enzyme, sequence (Q06187 whole entry C481S): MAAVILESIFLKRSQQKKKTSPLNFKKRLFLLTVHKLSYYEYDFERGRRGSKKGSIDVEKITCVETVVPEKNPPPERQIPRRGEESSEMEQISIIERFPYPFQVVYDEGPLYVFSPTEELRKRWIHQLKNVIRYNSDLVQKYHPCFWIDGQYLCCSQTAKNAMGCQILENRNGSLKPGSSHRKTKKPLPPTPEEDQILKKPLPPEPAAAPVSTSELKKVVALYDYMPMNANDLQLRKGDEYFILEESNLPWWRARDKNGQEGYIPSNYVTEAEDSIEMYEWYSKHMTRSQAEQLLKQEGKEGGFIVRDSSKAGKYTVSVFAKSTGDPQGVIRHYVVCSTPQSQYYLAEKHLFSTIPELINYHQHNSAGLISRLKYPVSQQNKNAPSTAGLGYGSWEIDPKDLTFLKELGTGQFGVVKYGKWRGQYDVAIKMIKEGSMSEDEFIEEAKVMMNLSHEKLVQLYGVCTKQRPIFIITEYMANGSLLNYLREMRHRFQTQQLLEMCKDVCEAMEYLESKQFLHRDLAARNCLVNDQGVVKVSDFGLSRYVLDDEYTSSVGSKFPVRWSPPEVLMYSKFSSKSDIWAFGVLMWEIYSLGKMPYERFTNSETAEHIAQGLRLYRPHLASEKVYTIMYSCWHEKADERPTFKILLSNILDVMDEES
# How it was run: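 IC50 values come from IMAP fluorescence polarization after quenching with progressive binding solution. The reaction ran 2 h at room temperature in the dark with 1.2 nM full-length C481S enzyme, 7 μM ATP and 50 nM fluorescein-labelled MBP-derived peptide, following a 1 h dark pre-incubation of compound with enzyme.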
# [3] = tested on: wt-REC-1 mantle cell lymphoma cells; assay: Cell proliferation assay wt-REC-1 (ATPlite, 72 hours); type: cell-based; conditions: 72 h; read-out: IC50 wt-REC-1
# How it was run: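 Luminescent viability read over 72 h, start-of-incubation signal recorded separately to separate growth from cell death. Percentage growth referenced to compound-free 0.3% DMSO wells; IC50 from 4-parameter logistic fit.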
# REC-1 T474I cell lines = assay: Cell proliferation assay REC-1 BTK T474I knock-in cells (ATPlite, 72 hours); type: cell-based; conditions: Homo sapiens, Rec1; 72 hours; read-out: IC50 REC-1 T474I
# How it was run: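 REC-1 cells carrying CRISPR knock-in mutant BTK, single-cell cloned and sequence-confirmed, were exposed to compound for 72 h and read by ATPlite luminescence. Percentage growth was calculated against the signal at the start of incubation and against untreated 0.3% DMSO wells as maximum growth.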
# wt-BTK = wt-BTK (Homo sapiens (Human), UniProt Q06187); assay: Binding kinetics measurements (Surface Plasmon Resonance) on wt-BTK; conditions: for Kd: binding affinity by Surface Plasmon Resonance (SPR); for Tau (h) wt-BTK (Act): target residence time, SPR
# wt-BTK, sequence (Q06187 whole entry): as the sequence (Q06187 whole entry C481S) above, with S481C counted along it
# How it was run: (§1)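 Using streptavidin-captured kinase, binding was followed by SPR in 1% DMSO buffer at 22° C and 30 μl/min. Five consecutive compound injections spanned 3.16-316 nM, preceded by a blank run; data were double referenced before kinetic fitting.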
# BTK C481S = BTK C481S (Homo sapiens (Human), UniProt Q06187, C481S); assay: Binding kinetics measurements (Surface Plasmon Resonance) on BTK C481S; conditions: for Kd: binding affinity by Surface Plasmon Resonance (SPR); for Tau (h) BTK C418S (Act): target residence time for BTK C481S, SPR
# BTK C481S, sequence (Q06187 whole entry C481S): as the sequence (Q06187 whole entry C481S) above
# How it was run: as §1
# BTK T316A = BTK T316A (Homo sapiens (Human), UniProt Q06187, T316A); assay: Binding kinetics measurements (Surface Plasmon Resonance) on BTK T316A; conditions: for Tau (h) BTK T316A (Act): target residence time, SPR; for Kd: binding affinity by Surface Plasmon Resonance (SPR)
# BTK T316A, sequence (Q06187 whole entry T316A): as the sequence (Q06187 whole entry C481S) above, with T316A, S481C counted along it
# How it was run: as §1
# BTK T474I = BTK T474I (Homo sapiens (Human), UniProt Q06187, T474I); assay: Binding kinetics measurements (Surface Plasmon Resonance) on BTK T474I; conditions: for Kd: binding affinity by Surface Plasmon Resonance (SPR); for Tau (h) BTK T474I (Act): target residence time, SPR
# BTK T474I, sequence (Q06187 whole entry T474I): as the sequence (Q06187 whole entry C481S) above, with T474I, S481C counted along it
# How it was run: as §1
# BTK T474S = BTK T474S (Homo sapiens (Human), UniProt Q06187, T474S); assay: Binding kinetics measurements (Surface Plasmon Resonance) on BTK T474S; conditions: for residence time: SPR binding kinetics, BTK T474S, read-out: Tau (h) BTK T474S (Act), target residence time (converted); for Kd: binding affinity by Surface Plasmon Resonance (SPR)
# BTK T474S, sequence (Q06187 whole entry T474S): as the sequence (Q06187 whole entry C481S) above, with T474S, S481C counted along it
# How it was run: as §1
# [4] = tested on: wt-TMD8 diffuse large B-cell lymphoma cells; assay: Cell proliferation assay wt-TMD8 (ATPlite, 120 hours); type: cell-based; conditions: B-cell; wt-TMD8 cells, 120 hours, ATPlite; read-out: IC50 wt-TMD8
# How it was run: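 Readout is percentage growth from ATPlite 1Step luminescence after 5 days (120 h) compound treatment of wt-TMD8 lymphoma cells (1600/well, RPMI-1640 + 10% FBS). Time-zero signal separates growth inhibition from cell kill; 0.3% DMSO wells without compound define maximal growth.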
# full-length wt-BTK enzyme, sequence (Q06187 whole entry): as the sequence (Q06187 whole entry C481S) above, with S481C counted along it
Structure (SMILES),IC50 [1] [nM],IC50 [2] [nM],IC50 [3] [nM],IC50 (REC-1 T474I cell lines) [nM],Kd (wt-BTK) [nM],Tau (h) wt-BTK (Act) (wt-BTK) [h],Kd (BTK C481S) [nM],Tau (h) BTK C418S (Act) (BTK C481S) [h],Tau (h) BTK T316A (Act) (BTK T316A) [h],Kd (BTK T474I),Tau (h) BTK T474I (Act) (BTK T474I) [h],residence time (BTK T474S) [h],Kd (BTK T474S) [nM],IC50 [4] [nM],Kd (BTK T316A) [nM]
C[C@H]1CC(=O)N[C@@H]2CCC[C@H](C2)n2nc(-c3ccc(C(=O)Nc4cc(C(F)(F)F)ccn4)cc3)c3c(N)ncc(c32)/C=C/CN1C [Example 151],< 5,< 5,100 to 1000,100 to 500,< 5,7.58,< 5,8.25,1.89,< 2 nM,0.70,2.11,< 3,< 100,
Nc1ncc2c3c1c(-c1ccc(C(=O)Nc4cc(C(F)(F)F)ccn4)cc1)nn3[C@@H]1CCC[C@H](C1)NC(=O)COC/C=C/2 [Example 49],< 5,< 5,< 100,100 to 500,< 5,3.20,< 5,4.75,2.20,< 2 nM,,4.63,< 3,< 100,< 5
COc1ccc(F)cc1C(=O)NCc1ccc(-c2nn3c4c(cnc(N)c24)/C=C/CCCC(=O)N[C@@H]2CCC[C@@H]3C2)cc1 [Example 50],< 5,< 5,100 to 1000,500 to 10000,< 5,,< 5,,,10 to 50 nM and < 5 nM,,,< 3,< 100,< 5
C[C@@H]1CCn2nc(-c3ccc(C(=O)Nc4cc(C(F)(F)F)ccn4)cc3)c3c(N)ncc(c32)/C=C/CCN2CC[C@H]2C(=O)N1 [Example 68],< 5,< 5,< 100,500 to 10000,< 5,4.48,< 5,2.39,3.79,< 2 nM,,3.79,< 3,< 100,< 5
CN1C/C=C/c2cnc(N)c3c(-c4ccc(C(=O)Nc5cc(C(F)(F)F)ccn5)cc4)nn(c23)[C@@H]2CCC[C@H](C2)NC(=O)CCC1 [Example 10],< 5,< 5,< 100,500 to 10000,< 5,6.77,< 5,6.76,1.76,< 2 nM,,9.46,< 3,< 100,< 5
C[C@@H]1CC(=O)N[C@@H]2CCC[C@H](C2)n2nc(-c3ccc(C(=O)Nc4cc(C(F)(F)F)ccn4)cc3)c3c(N)ncc(c32)/C=C/CN1C [Example 44],< 5,< 5,< 100,< 100,< 5,2.32,< 5,,2.47,< 2 nM,0.87,3.27,< 3,< 100,< 5
C[C@H]1CC(=O)N[C@@H]2CCCC(C2)n2nc(-c3ccc(C(=O)Nc4cc(C(F)(F)F)ccn4)cc3)c3c(N)ncc(c32)/C=C/CCN1 [Example 150],< 5,< 5,100 to 1000,100 to 500,< 5,2.52,< 5,1.51,2.48,< 2 nM,,1.5,< 3,< 100,< 5
Nc1ncc2c3c1c(-c1ccc(C(=O)Nc4ccccn4)cc1)nn3[C@@H]1CCC[C@H](C1)C(=O)NCCCC/C=C\C2 [Example 87b],< 5,< 5,< 100,100 to 500,< 5,,< 5,,,10 to 50 nM and < 5 nM,,,< 3,< 100,< 5
N#Cc1ccnc(NC(=O)c2ccc(-c3nn4c5c(cnc(N)c35)/C=C/COCCC(=O)N[C@@H]3CCC[C@@H]4C3)cc2)c1 [Example 164],< 5,< 5,< 100,< 100,,10.55,,>24,3.41,,0.90,6.88,,< 100,
Nc1ncc2c3c1c(-c1ccc(C(=O)Nc4cc(C(F)(F)F)ccn4)cc1)nn3[C@@H]1CCC[C@H](C1)NC(=O)[C@H]1CN(C/C=C/2)CCN1 [Example 141],< 5,< 5,< 100,< 100,< 5,>24,< 5,4.45,8.86,< 2 nM,6.21,4.17,< 3,< 100,< 5
Nc1ncc2c3c1c(-c1ccc(C(=O)Nc4cc(C(F)(F)F)ccn4)cc1)nn3[C@@H]1CCC[C@H](C1)NC(=O)CCNCC/C=C/2 [Example 33],< 5,< 5,< 100,< 100,< 5,3.46,< 5,9.96,3.62,< 2 nM,1.26,5.78,< 3,< 100,< 5
